Test results from PubChem BioAssay (NCI).
Several values for one entry are separate records, joined by “and”; a condition that tells them apart may be missing. Identical values can stand only once.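 How tested: cells in 96-well plates exposed to compound for 48 hours at five concentrations. Abbreviation: GI50, concentration required for 50% inhibition of growth. The concentration for full growth arrest is given as TGI.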

Columns and labels:
Test in all cases: NCI-60 cell line screen, 48 h
A549 NSCLC = system: A549 NSCLC
SN12C renal = system: SN12C renal
MALME-3M melanoma = system: MALME-3M melanoma
HCC-2998 colon = system: HCC-2998 colon
NCI-H522 lung = system: NCI-H522 lung
NCI-H460 lung = system: NCI-H460 lung
786-0 renal = system: 786-0 renal
K-562 leukemia = system: K-562 leukemia
OVCAR-5 ovarian = system: OVCAR-5 ovarian
NCI-H23 lung = system: NCI-H23 lung

| SMILES | TGI (A549 NSCLC) | TGI (SN12C renal) | TGI (MALME-3M melanoma) | TGI (HCC-2998 colon) | TGI (NCI-H522 lung) | TGI (NCI-H460 lung) | TGI (786-0 renal) | TGI (K-562 leukemia) | GI50 (OVCAR-5 ovarian) | TGI (OVCAR-5 ovarian) | TGI (NCI-H23 lung) | GI50 (SN12C renal) | GI50 (MALME-3M melanoma) | GI50 (HCC-2998 colon) | GI50 (786-0 renal) | GI50 (A549 NSCLC) | GI50 (NCI-H23 lung) | GI50 (NCI-H522 lung) | GI50 (NCI-H460 lung) | GI50 (K-562 leukemia) |
| --- | --- | --- | --- | --- | --- | --- | --- | --- | --- | --- | --- | --- | --- | --- | --- | --- | --- | --- | --- | --- |
| C1CCOC2(CCC3(CC2)OCCCCO3)OC1 | > 100 µM | > 100 µM | > 100 µM | > 100 µM | > 100 µM | > 100 µM | > 100 µM | > 100 µM |  |  |  |  |  |  |  |  |  |  |  |  |
| CN(C)c1ccc(C(=C2C=CC(=[N+](C)C)C=C2)c2ccc(N(C)C)cc2)cc1 | 1.2 µM and 2.48 µM | 1.43 µM and 0.902 µM | 0.879 µM and 0.773 µM | 1.17 µM and 0.934 µM |  | 1.55 µM | 0.709 µM and 1.17 µM | 1.1 µM and 0.143 µM | 0.295 µM | 1.17 µM and 0.578 µM | 0.37 µM | 0.04 µM | 0.216 µM | 0.194 µM | 0.187 µM |  |  |  |  |  |
| C=C1CCC2[C@@H](CCC3[C@]2(C)CCC[C@]3(C)C(=O)OC)C1CCO (some centres undefined) | 32.5 µM | 27.5 µM | 35.8 µM |  | 21.6 µM | 37.2 µM | 49.2 µM | 26.1 µM |  | 33.2 µM | 23.2 µM |  |  |  |  |  |  |  |  |  |
| C=CCNC(=O)NCCCC(NC(C)=O)C(=O)NCc1ccccc1 (centres undefined) | > 100 µM | > 100 µM | > 100 µM |  | > 100 µM | > 100 µM | > 100 µM | > 100 µM |  | > 100 µM | > 100 µM |  |  |  |  |  |  |  |  |  |
| CC(=O)O[C@H]1CC[C@@]2(C)[C@@H](CC[C@@H]3[C@@H]2CC[C@]2(C)C=C(C=O)C[C@@H]32)C1 | > 100 µM | 10.6 µM | 12.6 µM |  | 45.6 µM | 42.4 µM | 37.3 µM | 16.5 µM | 13.2 µM | 34.4 µM | 31.1 µM | 3.42 µM | 3.64 µM |  | 19.5 µM | 25.8 µM | 10.5 µM | 21.1 µM | 20.6 µM | 3.74 µM |
| CC12CC(OC(=O)[C@]1(C)O)[C@@H]([C@]1(O)CC[C@H]3[C@@H]4C[C@H]5O[C@]56[C@@H](O)C=CC(=O)[C@]6(C)[C@H]4CC[C@@]31C)C2 (some centres undefined) | > 100 µM | 20.5 µM |  | 36.4 µM | 2.92 µM | 32.3 µM | 10.1 µM | 13.8 µM |  | 25.2 µM | 14.4 µM |  |  |  |  |  |  |  |  |  |
| CCCC(Sc1ccccc1)P(=O)(c1ccccc1)c1ccccc1 (centres undefined) | > 100 µM | > 100 µM |  |  | > 100 µM | > 100 µM | > 100 µM | > 100 µM |  |  | > 100 µM |  |  |  |  |  |  |  |  |  |
| CCCOc1nc(SCCC)nc2c1cnn2-c1ccccc1 | > 100 µM | > 100 µM | > 100 µM | > 100 µM |  | > 100 µM | > 100 µM | > 100 µM | > 100 µM | > 100 µM | > 100 µM | > 100 µM | > 100 µM | > 100 µM | > 100 µM | > 100 µM | > 100 µM |  | > 100 µM | > 100 µM |
| CCCCN(CCCC)c1ccc(C(=NC(C)CCCN(CC)CC)c2ccc(N(C)C)cc2)cc1 (centres undefined) | 2.57 µM |  | 1.62 µM | 1.77 µM | 1.56 µM | 1.64 µM | 1.43 µM | 0.549 µM | 1.31 µM | 3.47 µM | 1.93 µM |  | 0.785 µM | 0.922 µM | 0.705 µM | 1.01 µM | 0.889 µM | 0.706 µM | 0.842 µM | 0.153 µM |
| COCCNc1cc(NC(=O)N2CCCc3cc(CN4CCN(C)CC4=O)c(C=O)nc32)ncc1C#N | > 50 µM | > 50 µM | > 50 µM | > 50 µM | > 50 µM | > 50 µM | > 50 µM |  | > 50 µM | > 50 µM | > 50 µM | > 50 µM | > 50 µM | > 50 µM | 29.5 µM | > 50 µM | > 50 µM | > 50 µM | > 50 µM |  |
| C=CC1C(OC2OC(CO)C(O)C(O)C2O)OC=C(C(=O)OC)C1CC=O (centres undefined) | > 100 µM | > 100 µM | > 100 µM |  |  |  | > 100 µM | > 100 µM |  |  | > 100 µM |  |  |  |  |  |  |  |  |  |
| Cc1cn2c(/C=N/Nc3ccccn3)c(-c3ccc(Cl)c([N+](=O)[O-])c3)nc2s1 | 21.9 µM | 42.4 µM |  | > 50 µM | 26.5 µM | 22.3 µM | > 50 µM | > 50 µM | 11.8 µM | 39.5 µM | 27.2 µM | 14.3 µM |  | > 50 µM | 18.5 µM | 8.7 µM | 10.9 µM | 7.35 µM | 5.3 µM | 26.7 µM |
| CCC1CCc2c(OC)ccc(OCC(=O)O)c2C1=O (centres undefined) | > 100 µM | > 100 µM | > 100 µM | > 100 µM | > 100 µM |  | > 100 µM | > 100 µM |  | > 100 µM | > 100 µM |  |  |  |  |  |  |  |  |  |
| CCN(CC)CC(C(=O)Nc1c(C)cccc1C)/C(C)=N\NC(=O)c1ccncc1 (centres undefined) | > 100 µM | > 100 µM | > 100 µM | > 100 µM | > 100 µM | > 100 µM | > 100 µM |  |  | > 100 µM | > 100 µM |  |  |  |  |  |  |  |  |  |
| C/C=C/C=C/CCCCCCCCCCCCCC1(OC)C=CC(CC(=O)OC)OO1 (centres undefined) | 19.7 µM | 26.3 µM | 50.8 µM | 9.99 µM | 3.09 µM | 29.4 µM | 3.51 µM | > 50.1 µM |  |  | 14 µM |  |  | 3.5 µM | 1.75 µM | 5.57 µM | 4.3 µM | 1.58 µM |  |  |
| CC(C)C[C@H](NC(=O)[C@@H](O)[C@H](N)Cc1ccc([N+](=O)[O-])cc1)C(=O)O | > 25 µM |  | > 25 µM | > 25 µM | > 25 µM | > 25 µM | > 25 µM | > 25 µM | > 25 µM | > 25 µM | > 25 µM |  | > 25 µM | > 25 µM | > 25 µM | > 25 µM | > 25 µM | > 25 µM | > 25 µM | > 25 µM |
| S=C(Nc1cc(Cl)c(Cl)cc1Cl)SCc1ccccc1 | > 100 µM | > 100 µM | 59.3 µM |  | 59.5 µM | > 100 µM | > 100 µM | 45.1 µM |  | 46.5 µM | 45.3 µM |  |  |  |  |  |  |  |  |  |
| Cc1c(Cl)cccc1NC1=C(Cl)C(=O)N(Cc2ccccc2)C1=O | 29.6 µM | 24.1 µM |  | 13.6 µM | > 100 µM | 30.2 µM | 11 µM | 16.9 µM | 17.6 µM | 31.5 µM | 22.7 µM | 11.4 µM |  | 3.12 µM | 1.9 µM | 12 µM | 10.8 µM | 17 µM | 11 µM | 4.25 µM |
